As a reminder, the IC50 is the concentration needed to halve the response being measured. By melting point is commonly meant the temperature of the solid-liquid transition.

11 molecules from patent publication US8110686B2 (Chugai Seiyaki Kabushiki Kaisha, priority 2001, dated 2012) can be followed below.

The target in data set [1] is T1, malonyl-CoA decarboxylase prepared from rat heart (Rattus norvegicus, UniProt Q920F5).
T1 construct: malonyl-CoA decarboxylase prepared from rat heart; from tissue; host or cells: rat heart
T1 sequence (Q920F5 39-492): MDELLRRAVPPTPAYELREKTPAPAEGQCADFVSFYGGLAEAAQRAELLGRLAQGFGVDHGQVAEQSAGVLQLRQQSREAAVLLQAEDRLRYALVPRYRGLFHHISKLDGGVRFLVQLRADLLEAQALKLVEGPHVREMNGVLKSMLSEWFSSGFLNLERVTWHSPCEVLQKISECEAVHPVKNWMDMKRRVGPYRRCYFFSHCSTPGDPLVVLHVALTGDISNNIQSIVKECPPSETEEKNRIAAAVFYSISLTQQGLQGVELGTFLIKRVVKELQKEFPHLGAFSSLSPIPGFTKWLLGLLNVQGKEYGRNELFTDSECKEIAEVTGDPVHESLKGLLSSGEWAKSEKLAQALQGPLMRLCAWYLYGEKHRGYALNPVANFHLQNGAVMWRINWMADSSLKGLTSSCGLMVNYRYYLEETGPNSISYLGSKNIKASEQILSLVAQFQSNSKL
The experiment in a line: In vitro MCD inhibitory assay (spectrophotometric, 96 well). The data set is classed as biochemical. The following applies: read-out: IC50 of the MCD inhibitors. As for the experimental part: The following reagents are added into a 96 well titer plate: Tris-HCl buffer, 20 μL; DTE, 10 μL; l-malate, 20 μL; NAD, 10 μL; NADH, 25 μL; water, 80 μL; malic dehydrogenase, 5 μL. The contents are mixed and incubated for 2 min followed by the addition of 5 μL of citrate synthase. […] The content is incubated and absorbence at […] is measured.
Active compounds are characterized by the concentration of the compound that caused 50% inhibition of MCD activity (IC50).

Data set [2] deals with isolated working hearts from male Sprague-Dawley rats. The experiment in a line: Glucose oxidation and fatty acid oxidation measurement in the perfused rat heart. The following applies: isolated perfused rat heart assay; versus ranolazine or trimetazidine. Here is the method:
Isolated working hearts from male Sprague-Dawley rats are subjected to a 60-minute aerobic perfusion period with a modified Krebs-Henseleit solution containing 5 mmol/L glucose; 100 μU/mL insulin; 3% BAS; and 1.2 mmol/L palmitate. Working hearts are used in these studies to approximate the metabolic demand of the heart seen in vivo. (Kantor et al., Circulation Research 86:580-588 (2000)). The test compound is added 5 minutes into the perfusion period.
Glucose oxidation rates are determined by the quantitative collection of ^14CO2 produced by hearts perfused with buffer containing […]. Rates of fatty acid oxidation are determined by the quantitative collection of ^14CO2 produced by hearts perfused with buffer containing [^14C]palmitate (McNeill, J. H. in “Measurement of cardiovascular function”, chapter 2, CRC press, New York (1997)).
Active compounds are characterized by an increase in glucose oxidation as compared to control experiment (DMSO). The compounds that caused statistically significant increases in glucose oxidation are considered to be active. The preferred compounds cause statistically significant increases in glucose oxidation at 20 μM. Statistical significance was calculated using the Student's t test for paired or unpaired samples, as appropriate. The results with P<0.05 are considered to be statistically significant.

For the molecule `CC(C)N(C(=O)Oc1ccc(Cl)cc1)c1ccc2nc(S)sc2c1` [Table 4; entry 4], the IC50 in data set [1] came out at 75 nM.
With `CC(C)N(C(=O)OCCOCc1ccccc1)c1ccc2nc(S)sc2c1` [Table 4; entry 6], the IC50 in data set [1] amounted to 1600 nM.
In turn, `O=C1CNC(=S)N1c1ccc2nc(S)sc2c1` [Table 5; entry 1, 3-(2-mercapto-1,3-benzothiazol-6-yl)-2-thioxoimidazolidin-4-one] registered a melting point of more than 266 °C.
As for `CC(C)N(C(=O)Nc1ccc(CC(=O)O)cc1)c1ccc2nc(S)sc2c1` [Table 3; entry 17], the IC50 in data set [1] is 42 nM.
Take `CC(C)N(C(=O)c1ccc(C(F)(F)F)cc1)c1ccc2nc(S)sc2n1` [Table 8; entry 7]: the half-inhibitory concentration (IC50) in data set [1] was found to be 25 nM. Besides, in data set [2], the “effects in metabolism shift compared with known metabolism modulators” value is listed as “more profound effects in metabolism shift than the known metabolism modulators such as ranolazine or trimetazidine”.
Take `CC(C)N(C(=O)Nc1ccc(C(F)(F)F)cc1)c1ccc2nc(S)sc2n1` [Table 7; entry 8]: in data set [1], the IC50 worked out at 52 nM.
Regarding `CC(C)N(C(=O)Nc1ccc(C(F)(F)F)cc1)c1ccc2nc(S)sc2c1` [Table 3; entry 16], the IC50 in data set [1] stood at 23 nM. Also, the “effects in metabolism shift compared with known metabolism modulators” value in data set [2] is listed as “more profound effects in metabolism shift than the known metabolism modulators such as ranolazine or trimetazidine”.
Consider `CC(C)CN(C(=O)Nc1ccc(C#N)cc1)c1ccc2nc(S)sc2c1` [Table 3; entry 3], for which the IC50 in data set [1] was 93 nM.
Molecule `CCCCOc1ccc(NC(=O)N(CC)c2ccc3nc(S)sc3n2)cc1` [Table 7; entry 1, 3-(4-butoxy-phenyl)-1-ethyl-1-(2-mercapto-thiazolo[5,4-b]pyridin-5-yl)-urea] showed a melting point of 134.3 to 135 °C. Also, the IC50 in data set [1] came to 62 nM.
In the case of `CCN(C(=O)COc1ccccc1)c1ccc2nc(S)sc2n1` [Table 8; entry 1, N-ethyl-N-(2-mercapto-thiazolo[5,4-b]pyridin-5-yl)-2-phenoxy-acetamide], the melting point lay in the range of 107.5 to 109 °C. The IC50 in data set [1] stood at 98 nM.
`CC(C)CN(C(=O)Nc1ccc(C(F)(F)F)cc1)c1ccc2nc(S)sc2c1` [Table 3; entry 1, N-(2-mercapto-1,3-benzothiazol-6-yl)-N-(2-methylpropyl)-N′-[4-(trifluoromethyl)phenyl]urea]: the IC50 in data set [1] worked out at 31 nM.
